From patent US9441012B2, “Fluorinated epoxyketone-based compounds and uses thereof as proteasome inhibitors” (FLUORINOV PHARMA INC., priority 2012, dated 2016) come the findings set out here.

Bounds are passed on as bounds.

One data set deals with MM.1S tumor cells. Briefly: Myeloma MM.1S mouse xenograft model. It counts as in vivo. As to the method: The mice were irradiated (200 rads) using a Co60 irradiator source. After 24 his, each mouse was inoculated subcutaneously with 5×10^6 MM.1S tumor cells in 0.1 ml PBS for tumor development. Treatments were started when the tumor volume reached 100 mm^3. Each treatment group consisted of 10 mice. The compound of Example 1 was administrated to the tumor-bearing mice according to a specific predetermined regimen.

Data set [1] has as its system standard panel of 12 tumor cell lines. Briefly: Hollow fiber assay (HFA). Type of data set: in vivo, mouse. Conditions: ip, 75 mg/kg/dose and 35.5 mg/kg/dose, QD x 4. As to the method:
Hollow fibre assay in vivo pharmacodynamic studies were carried out. This in vivo animal model uses semi-permeable biocompatible fibres that are filled with cancer cells, heat-sealed and implanted surgically (s.c. or i.p.) in mice or rats, which can then be treated with chemotherapeutics. Many different cell lines from different tissue origins and cellular characteristics can be encapsulated within the fibres, providing a cost-effective screening method.
The Oncology Program Screening and Characterization Strategy group at NCI uses HFA, which provides quantitative indices of drug efficacy with minimal expenditures of time and materials. Thus, the HFA is being utilized as the initial in vivo experience for compounds of Formula I.
A total of 3 different tumor lines are prepared for each experiment so that each mouse receives 3 intraperitoneal implants (1 of each tumor line) and 3 subcutaneous implants (1 of each tumor line). A compound is considered for xenograft testing if it produces cell kill of any cell line at either dose level evaluated, or it has a combined ip+sc score of 20 or greater, a sc score of 8 or greater. […]
The compound of Example 1 was evaluated in an HFA assay via ip administration at two doses; a 75 mg/kg/dose and a 35.5 mg/kg/dose, QD […] 4. […]

The test system of a further data set is LP1 myeloma cells. As to the kind of experiment: Combination assays: viability of myeloma LP1 cells (MTS, combination index). Type of data set: cell-based, human. As to the method: To examine whether compounds of Formula I can be combined with other conventional and newer anti-multiple myeloma agents, such as dexamethasone and bortezomib, respectively, LP1 myeloma cells were treated for 72 hours with increasing concentrations of compounds of Formula I in combination with dexamethasone or bortezomib. After incubation, cell growth and viability was measured by the MTS assay. The combination index (CI) analysis, where a CI<1 indicates synergy between two drugs, a CI=1 indicates additivity, and a CI>1 indicates antagonism, was used to determine whether the cytotoxicity produced by the combinations with compounds of Formula I were synergistic, additive, or antagonistic.
The effects of combining these agents with a representative of compounds of Formula I i.e. the compound of Example 1 on the viability of myeloma LP1 cells in culture were assessed. LP1 cells were treated for 72 hours with increasing concentrations of the compound of Example 1 in combination with dexamethasone or bortezomib. After incubation, cell growth and viability was measured by the MTS assay.
The combination of the compound of Example 1 and bortezomib was synergistic with Combination Index values of 0.41, 0.46, and 0.88 at Fraction affected (Fa) levels of 0.39, 0.58, and 0.6, respectively (FIG. 2A).
The combination of the compound of Example 1 and dexamethasone was synergistic with Combination Index values of 0.41, 0.44, and 0.5 at Fraction affected levels of 0.43, 0.5, and 0.64, respectively (FIG. 2B).

In data set [2] the test system is primary CD138+ myeloma cells. As to the kind of experiment: Viability of primary patient samples (Annexin V, anti-CD138, flow cytometry). Type of data set: cell-based, human. Particulars: 24 hours. As to the method: (§1) Apoptosis was measured by staining cells treated with compounds of Formula I with annexin V-fluorescein isothiocyanate and propidium iodide (both from Biovision Research Products, Mountain View, Calif.) and flow cytometry according to manufacturer's instructions and as previously described [Blood. 2005, 105(10), 4043-4050]. Experiments were performed at least in duplicate and repeated at least twice (n=4-20 data points). Viable primary myeloma cells were identified by staining with phycoerythrin-conjugated mouse monoclonal anti-CD138 antibody (20 μL/[…] cells; Beckman Coulter, Brea, Calif.). The percentage of myeloma cells that were CD138 positive and annexin V negative after compounds of Formula (I) treatment compared with untreated samples was quantified as a marker of cell viability as previously described [Blood. 2007, 109(12), 5430-5438].
(§2) Effects of a representative of compounds of Formula I (the compound of Example 1) on the viability of primary malignant and normal hematopoietic cells isolated from patient samples was also studied. […] Viability of normal hematopoietic cells (CD138−) and myeloma cells (CD138+) were measured by flow cytometry with PE-labeled anti-CD138 and FITC-labeled Annexin V co-staining. […]
(Flow cytometry measures light scatter and fluorescence of single cells or particles in a stream.)

Data set [3] deals with AML2 mouse xenograft leukemia model. Briefly: Leukemia AML2 xenograft model. Type of data set: in vivo. Particulars: 30 mg/kg oral gavage. As to the method: Sublethally irradiated NOD-SCID mice bearing an established human tumor xenograft derived from RL and BALB/c mice challenged with the murine tumor cell line AML2 were treated twice weekly on days 1 and 2 (QD×2) with a dose of 30 mg/kg to 200 mg/kg of the compound of Example 1 by oral gavage. Dosing began on Day 6 post tumor challenge.

In data set [4] the test system is normal mononuclear hematopoietic cells (CD138−). Briefly: Viability of primary patient samples (Annexin V, anti-CD138, flow cytometry). It counts as cell-based. Particulars: 24 hours. The method, then: as §1, §2
[5] abbreviates: 100 mg/kg p.o, days 1, 3, 5/wk×4 wks.

Take `Cc1ncc(C(=O)N[C@@H](COC(F)F)C(=O)N[C@@H](COC(F)F)C(=O)N[C@@H](Cc2ccccc2)C(=O)[C@@]2(C)CO2)s1` [Example 1, 2-methyl-thiazole-5-carboxylic acid ((S)-1-{(S)-1-[(S)-1-benzyl-2-((R)-2-methyloxiranyl)-2-oxo-ethylcarbamoyl]-2-difluoromethoxyethylcarbamoyl}-2-difluoromethoxyethyl)-amide]: the “antitumor activity vs. control” value in the data set with MM.1S tumor cells (50 mg/kg p.o, qd×28 days) is “statically significant antitumor activity”; in the data set on MM.1S tumor cells (setting [5]), “statically significant antitumor activity”. Further, the “gross adverse effects including reductions in body weight or alterations in behaviour” value in the data set on MM.1S tumor cells (50 mg/kg p.o, qd×28 days) was “no observed gross adverse effects”; with MM.1S tumor cells (setting [5]) it was “no observed gross adverse effects”; in data set [3], “no observed gross adverse effects”. Also, in data set [1], the “cell killing in hollow fiber assay” value is on record as “produced cell killing of multiple cell lines”. Moreover, the “Combination Index” value in the data set on LP1 myeloma cells (combination with bortezomib, Fraction affected 0.39, LP1, 72 hours) came to 0.41; with LP1 myeloma cells (combination with bortezomib, Fraction affected 0.58, LP1, 72 hours) it was 0.46; with LP1 myeloma cells (combination with bortezomib, Fraction affected 0.6, LP1, 72 hours), 0.88; in the data set on LP1 myeloma cells (combination with dexamethasone, Fraction affected 0.43, LP1, 72 hours) it was 0.41; in the data set on LP1 myeloma cells (combination with dexamethasone, Fraction affected 0.5, LP1, 72 hours), 0.44; in the data set with LP1 myeloma cells (combination with dexamethasone, Fraction affected 0.64, LP1, 72 hours), 0.5. Besides, the “viability of primary CD138+ myeloma cells over CD138− normal hematopoietic cells” value in data set [2] (patient bone marrow or peripheral blood samples) was “selectively reduced the viability”. The “cell death in the plasma cells of the myeloma patients” value in data set [2] (patient samples) is reported as “nanomolar concentrations”. In addition, the tumor growth inhibition result in data set [3] (twice weekly days 1 and 2 (QD×2)) is “greater than 40%”. Also, the “LD50 normal mononuclear hematopoietic cells” value in data set [4] was above 2.5 µM.
